Measurements from patent publication US12139492B2 (Endotarget Inc., priority 2021, dated 2024).
Read-outs that look alike come from different tables or passages of the source.

Key:
Mino cells = assay: Antiproliferative effect, MTS cell viability assay, Mino cells; type: cell-based; details: Homo sapiens, Mino mantle cell lymphoma cells, read-out: IC50 (anti-proliferation) Mino cells
Method in brief: (§1)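 Readout was MTS-derived formazan absorbance (490 nm) reflecting metabolically active cells. Treatment lasted 72 h over a 0–10 μM range (0.001, 0.01, 0.1, 1, 10 μM) in JeKo-1 and Mino B-cell malignancy cells.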

BTK [1] = biological target: T1, BTK (Homo sapiens, UniProt Q06187); assay: BTK degradation, DC50 and Dmax of Table 1 (cell line not given); type: cell-based; parameters: endogenous in cells; details: for DC50: concentration giving 50% reduction of BTK expression level
T1 sequence (Q06187 whole entry): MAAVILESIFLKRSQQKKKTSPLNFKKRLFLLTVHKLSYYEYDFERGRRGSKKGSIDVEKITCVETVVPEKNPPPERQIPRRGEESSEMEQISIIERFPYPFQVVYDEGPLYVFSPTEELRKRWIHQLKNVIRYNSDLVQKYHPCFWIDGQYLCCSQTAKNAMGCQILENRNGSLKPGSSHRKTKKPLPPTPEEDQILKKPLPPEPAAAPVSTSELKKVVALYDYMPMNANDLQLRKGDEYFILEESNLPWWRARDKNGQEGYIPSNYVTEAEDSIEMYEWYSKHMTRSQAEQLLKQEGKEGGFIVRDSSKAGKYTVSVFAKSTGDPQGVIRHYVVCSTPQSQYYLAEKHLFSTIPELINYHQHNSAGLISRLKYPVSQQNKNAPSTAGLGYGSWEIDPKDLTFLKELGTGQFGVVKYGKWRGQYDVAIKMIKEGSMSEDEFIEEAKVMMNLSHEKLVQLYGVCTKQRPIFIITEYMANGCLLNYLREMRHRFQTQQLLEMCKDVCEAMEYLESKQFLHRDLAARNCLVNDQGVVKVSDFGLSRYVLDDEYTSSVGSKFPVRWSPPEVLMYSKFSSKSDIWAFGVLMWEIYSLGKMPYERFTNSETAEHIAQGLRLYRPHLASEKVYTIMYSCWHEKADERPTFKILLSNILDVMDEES

Jeko-1 xenograft tumor = assay: In vivo tumor inhibition efficacy, JeKo-1 xenograft in NOD/SCID mice; details: 20 mg/kg daily oral gavage for 3 weeks
Procedure: JeKo-1 cells were obtained from American Type Culture Collection (ATCC, Manassas, VA). cells were maintained in RPMI 1640 (Life Technologies, Grand Island, NY) supplemented with 10% heat-inactivated fetal bovine serum (56° C. for 30 minutes), penicillin (10,000 units/mL; Sigma, St Louis, Mo), streptomycin (10 mg/mL; Sigma), gentamicin (50 mg/mL; Life Technologies), amphotericin B (25 mg/mL; Sigma), and L-glutamine (200 mM, 29.2 mg/mL; Life Technologies). culture, as previously described (29, 30). JeKo-1 cells (10 million) were subcutaneously implanted into the flank of NOD/SCID mice. When the average tumor volume reached approximately 300 mm^3, the following treatments were administered in cohorts of 5 mice for each treatment: vehicle alone, 20 mg/kg ibrutinib, 20 mg/kg Compound 2, and 20 mg/kg Compound 161 was administered daily via oral gavage for 3 weeks. Tumor growth was monitored every other day by calipers and tumor volume was calculated using the equation: (½(length×width^2)).

JeKo-1 cells = assay: Antiproliferative effect, MTS cell viability assay, JeKo-1 cells; type: cell-based; details: Homo sapiens; JeKo-1 mantle cell lymphoma cells; read-out: IC50 (anti-proliferation) JeKO-1 cells
Method in brief: as §1

BTK [2] = biological target: T1, BTK; assay: Degradation of BTK protein in Namalwa cells (Western blot; DC50, Dmax); details: Namalwa B lymphocyte cells, Western blot; for degradation of BTK protein: various concentrations, 24 hours
BTK [3] = biological target: T1, BTK; assay: Degradation of BTK protein in JeKo-1 cells (Western blot; DC50, Dmax); details: JeKo-1 mantle cell lymphoma cells, various concentrations, 24 hours
Procedure: (§5) Namalwa, JeKo-1, or Mino cells were plated in 24-well plates at a density of 10^5 cells/well. Media containing various drug concentrations were added on the day following plating (day 0) and allowed to incubate for 24 hours for Western blot. Media with the tested compound was changed every other day. […] Media were removed and dishes were washed with 1×DPBS. Lysates were made by adding 150 μL of complete lysis solution and scraping cells into a 1.5 mL microcentrifuge tube. Lysates were placed on a rotisserie at 4° C. for 30 min and then spun at 4° C. at 12000 rcf for 10 min. Supernatants were assayed for protein content, snap-frozen, and stored a −80° C. if not run immediately. Then 50 μg of protein was subjected to Western blot protocol. […] They were then imaged on a LICOR infrared scanner.

BTK [4] = biological target: T1, BTK; assay: Degradation of BTK protein in Mino cells (Western blot; DC50, Dmax); details: Mino mantle cell lymphoma cells, various concentrations, 24 hours
Procedure: as §5

[5] = test system: primary human CLL cell CTG-3763; assay: Ex vivo cell inhibition, Cell Titer Glo viability, primary CLL cell CTG-3763; type: cell-based; details: 10 nM to 50 μM, 6 days
Procedure: (§2) Primary human Human Chronic Lymphocytic Leukemia cell lines were used to measure ex vivo cell inhibition by exemplary compounds. The cells were incubated with test compounds at a dose range of 10 nM to 50 μM for 6 days. Cell Titer Glo data were gathered for cell viability evaluation.

[6] = test system: primary human CLL cell CTG-3754; assay: Ex vivo cell inhibition, Cell Titer Glo viability, primary CLL cell CTG-3754; type: cell-based; details: 10 nM to 50 μM, 6 days
Procedure: as §2

Namalwa cell = assay: Cell apoptosis by flow cytometry, Namalwa cells; type: cell-based; details: 1 and 10 μM, 72 hours, in vitro
Procedure: (§3) Cell apoptosis induced by treatment of exemplary compounds was measured by flow cytometry.
(§4) Flow cytometry analysis was performed after staining of the cells with PI and 7-AAD. For PI staining, 0.5×10^6 cells/mL were centrifuged at 1500 rpm for 5 min, supernatant was removed, and cell pellet was gently suspended with 1 ml Krishan buffer and then incubated at 4° C. in the dark for 60 min. Apoptosis was determined by Cytomic's FC500 Flow Cytometer (Beckman Coulter) and the data were analyzed by Win Cycle Multicycle Software (De Novo Software). For the 7-AAD staining, 0.5×10^6 cells were washed with PBS and centrifuged at 1500 rpm for 5 min. Supernatant was removed and the cell pellet was suspended in 100 μL PBS. 10 μL 7-AAD was added to each tube and incubated for 20 min at room temperature in the dark. 7-AAD labeled-cells were analyzed by Cytomic's FC500 Flow Cytometry (Beckman Coulter) and FCS Express Flow Cytometry Data Analysis software (DeNovo Software). For morphologic analysis of apoptosis by light microscopy, cells were incubated with Mock or with […] for 72 h. Control or drug treated-cells were cytospun on glass slides, stained with Wright-Giemsa, and then examined by light microscopy. Morphological changes associated with apoptosis included cellular shrinkage, nuclear condensation, nuclear fragmentation, and formation of apoptotic bodies. […]

JeKo-1 cell = assay: Cell apoptosis by flow cytometry, JeKo-1 cells; type: cell-based; details: 0.1, 1, and 10 μM, 72 hours, in vitro
Procedure: as §3, §4

Mino cell = assay: Cell apoptosis by flow cytometry, Mino cells; type: cell-based; details: 1 and 10 μM, 72 hours, in vitro
Procedure: as §3, §4

MOLT-4 cell = assay: Cell apoptosis by flow cytometry, MOLT-4 cells; type: cell-based; details: 1 and 10 μM, 72 hours, in vitro
Procedure: as §3, §4

SMILES | IC50 (Mino cells; MINO) | Dmax (BTK [1]) | DC50 (BTK [1]) | efficacy in inhibiting xenograft tumor growth (Jeko-1 xenograft tumor) | IC50 (JeKo-1 cells) | degradation of BTK protein at 10^−6 M (BTK [2]) | degradation of BTK protein (BTK [2]) | degradation of BTK protein (BTK [3]) | degradation of BTK protein (BTK [4]) | IC50 (Mino cells) | effect on primary human CLL cell viability [5] | effect on primary human CLL cell viability [6] | induction of cell apoptosis (Namalwa cell) | induction of cell apoptosis (JeKo-1 cell) | induction of cell apoptosis (Mino cell) | induction of cell apoptosis (MOLT-4 cell)
Nc1ncnc2c1c(-c1ccc(Oc3ccccc3)cc1)nn2[C@@H]1CCCN(C2CCN(C(=O)N3CCC(N4CCN(c5ccc6c(c5)C(=O)N(C5CCC(=O)NC5=O)C6=O)CC4)CC3)CC2)C1 (stereo partly drawn) [Compound 161, 5-(4-(1-((R)-3-(4-amino-3-(4-phenoxyphenyl)-1H-pyrazolo(3,4-d)pyrimidin-1-yl)-(1,4′-bipiperidine)-1′-carbonyl)piperidin-4-yl)piperazin-1-yl)-2-(2,6-dioxopiperidin-3-yl)isoindoline-1,3-dione] | < 1 µM | > 90% | 0.01 to 0.05 µM | inhibiting Jeko-1 xenograft tumor growth | < 1 µM | degradation | dose-dependent degradation | – | – | – | – | – | – | – | – | –
Nc1ncnc2c1c(-c1ccc(Oc3ccccc3)cc1)nn2[C@@H]1CCCN(C(=O)N2CCC(N3CCN(c4ccc5c(c4)CN(C4CCC(=O)NC4=O)C5=O)CC3)CC2)C1 (stereo partly drawn) [Compound 52, 3-(5-(4-(1-((R)-3-(4-amino-3-(4-phenoxyphenyl)-1H-pyrazolo(3,4-d)pyrimidin-1-yl)piperidine-1-carbonyl)piperidin-4-yl)piperazin-1-yl)-1-oxoisoindolin-2-yl)piperidine-2,6-dione] | < 1 µM | > 90% | < 0.01 µM | – | < 1 µM | – | dose-dependent degradation | dose-dependent degradation | dose-dependent degradation | – | – | – | – | – | – | –
Nc1ncnc2c1c(-c1ccc(Oc3ccccc3)cc1)nn2[C@@H]1CCCN(C2CCN(C(=O)N3CCC(N4CCN(c5ccc6c(c5)CN(C5CCC(=O)NC5=O)C6=O)CC4)CC3)CC2)C1 (stereo partly drawn) [Compound 162, 3-(5-(4-(1-((R)-3-(4-amino-3-(4-phenoxyphenyl)-1H-pyrazolo(3,4-d)pyrimidin-1-yl)-(1,4′-bipiperidine)-1′-carbonyl)piperidin-4-yl)piperazin-1-yl)-1-oxoisoindolin-2-yl)piperidine-2,6-dione] | – | > 90% | < 0.01 µM | – | < 1 µM | – | dose-dependent degradation | dose-dependent degradation | dose-dependent degradation | < 1 µM | – | – | – | – | – | –
Nc1ncnc2c1c(-c1ccc(Oc3ccccc3)cc1)nn2C1CCN(CCOCCOCCN2CCN(c3ccc4c(c3)C(=O)N(C3CCC(=O)NC3=O)C4=O)CC2)CC1 (centres unmarked) [Compound 1] | 1 to 10 µM | > 90% | 0.01 to 0.05 µM | – | 1 to 10 µM | – | dose-dependent degradation | – | – | – | dose-dependent effect | dose-dependent effect | – | – | – | –
Nc1ncnc2c1c(-c1ccc(Oc3ccccc3)cc1)nn2C1CCN(CCOCCOCCN2CCN(c3ccc4c(c3)CN(C3CCC(=O)NC3=O)C4=O)CC2)CC1 (centres unmarked) [Compound 2, 3-(5-(4-(2-(2-(2-(4-(4-amino-3-(4-phenoxyphenyl)-1H-pyrazolo(3,4-d)pyrimidin-1-yl)piperidin-1-yl)ethoxy)ethoxy)ethyl)piperazin-1-yl)-1-oxoisoindolin-2-yl)piperidine-2,6-dione] | < 1 µM | > 90% | < 0.01 µM | inhibiting Jeko-1 xenograft tumor growth | < 1 µM | – | dose-dependent degradation | dose-dependent degradation | – | – | dose-dependent effect | dose-dependent effect | induction of Namalwa cell apoptosis | induction of JeKo-1 cell apoptosis | induction of Mino cell apoptosis | induction of MOLT-4 cell apoptosis
Nc1ncnc2c1c(-c1ccc(Oc3ccccc3)cc1)nn2[C@@H]1CCCN(CC2CCN(C(=O)N3CCC(N4CCN(c5ccc6c(c5)C(=O)N(C5CCC(=O)NC5=O)C6=O)CC4)CC3)CC2)C1 (stereo partly drawn) [Compound 27, 5-(4-(1-(4-(((R)-3-(4-amino-3-(4-phenoxyphenyl)-1H-pyrazolo(3,4-d)pyrimidin-1-yl)piperidin-1-yl)methyl)piperidine-1-carbonyl)piperidin-4-yl)piperazin-1-yl)-2-(2,6-dioxopiperidin-3-yl)isoindoline-1,3-dione] | 1 to 10 µM | > 90% | < 0.01 µM | – | < 1 µM | degradation | dose-dependent degradation | dose-dependent degradation | dose-dependent degradation | – | – | – | – | – | – | –
Nc1ncnc2c1c(-c1ccc(Oc3ccccc3)cc1)nn2[C@@H]1CCCN(CC2CCN(C(=O)N3CCC(N4CCN(c5ccc6c(c5)CN(C5CCC(=O)NC5=O)C6=O)CC4)CC3)CC2)C1 (stereo partly drawn) [Compound 28, 3-(5-(4-(1-(4-(((R)-3-(4-amino-3-(4-phenoxyphenyl)-1H-pyrazolo(3,4-d)pyrimidin-1-yl)piperidin-1-yl)methyl)piperidine-1-carbonyl)piperidin-4-yl)piperazin-1-yl)-1-oxoisoindolin-2-yl)piperidine-2,6-dione] | – | > 90% | 0.01 to 0.05 µM | – | 1 to 10 µM | – | dose-dependent degradation | dose-dependent degradation | dose-dependent degradation | < 1 µM | – | – | – | – | – | –
